Results taken from ChEMBL document CHEMBL1201862, “PubChem BioAssay data set” (2004).
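Following 48 hours of exposure in 96-well plates, responses at five concentrations were used to interpolate endpoints linearly. Here, GI50 denotes the concentration required for 50% inhibition of growth.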 Active and inactive are the calls of the source. No stated cut-off is given here; in the data, active = GI50 up to about 1.1 µM and inactive = higher.

Key:
Assay in all cases: DTP human tumour cell line panel, 48 h
[1] = test system: MCF7
[2] = test system: OVCAR-5
[3] = test system: HOP-62
[4] = test system: EKVX
[5] = test system: NCI-H226
[6] = test system: Hs-578T
[7] = test system: K562
[8] = test system: M14
[9] = test system: HCC 2998
[10] = test system: MOLT-4
[11] = test system: SF-539
[12] = test system: SNB-19
[13] = test system: HT-29
[14] = test system: TK-10
[15] = test system: DU-145
[16] = test system: OVCAR-4
[17] = test system: NCI/ADR-RES
[18] = test system: RXF 393
[19] = test system: Malme-3M
[20] = test system: HOP-92

Row | SMILES | GI50 [1] | GI50 [2] | GI50 [3] | GI50 [4] | GI50 [5] | GI50 [6] | GI50 [7] | GI50 [8] | GI50 [9] | GI50 [10] | GI50 [11] | GI50 [12] | GI50 [13] | GI50 [14] | GI50 [15] | GI50 [16] | GI50 [17] | GI50 [18] | GI50 [19] | GI50 [20]
1 | CC(C)S(=O)(=O)ON1C(=O)c2ccc(N(C)C)cc2C1=O | 5.93 µM (inactive) | 18.8 µM (inactive) | 42.5 µM (inactive) | 22.3 µM (inactive) | 25.2 µM (inactive) | > 10 µM (inactive) | 3.41 µM (inactive) | 17.2 µM (inactive) | 13.3 µM (inactive) | 2.12 µM (inactive) | 19 µM (inactive) | 40.4 µM (inactive) | 22.8 µM (inactive) | 20.5 µM (inactive) | > 10 µM (inactive) | 17.7 µM (inactive) | 5.4 µM (inactive) | 13.2 µM (inactive) | 2.93 µM (inactive) | 7.35 µM (inactive)
2 | C=C1C(=O)OC2C1CCC(C)C1C=CC(=O)C12C (centres undefined) | 3.92 µM (inactive) | 4.53 µM (inactive) | 15.5 µM (inactive) | 8.79 µM (inactive) | 3.75 µM (inactive) | 2.56 µM (inactive) | 2.48 µM (inactive) | 1.95 µM (inactive) | 12 µM (inactive) | 2.46 µM (inactive) | 2.74 µM (inactive) | 14.7 µM (inactive) | 2.02 µM (inactive) | 3.05 µM (inactive) | 2.53 µM (inactive) | 6.76 µM (inactive) | 1.41 µM (inactive) | 1.84 µM (inactive) | 2.5 µM (inactive) | 4.1 µM (inactive)
3 | CN(C1=NS(=O)(=O)N=C(N(C)c2ccccc2)O1)c1ccccc1 | 15 µM (inactive) | 23.1 µM (inactive) | 22.9 µM (inactive) | 22.2 µM (inactive) | 14.9 µM (inactive) | 27.7 µM (inactive) | 17.7 µM (inactive) | 18.9 µM (inactive) | 20.7 µM (inactive) | 27.4 µM (inactive) | 21.6 µM (inactive) | 18.7 µM (inactive) | 22.9 µM (inactive) | 35.1 µM (inactive) | 21.9 µM (inactive) | 20.8 µM (inactive) | 21.8 µM (inactive) | 3.55 µM (inactive) | 24.2 µM (inactive) | 23.6 µM (inactive)
4 | COc1ccccc1C1c2cc3c(cc2OC2(OC)COC(=O)C12)OCO3 (centres undefined) | 10.3 µM (inactive) | 44.1 µM (inactive) | 22.2 µM (inactive) | 24.7 µM (inactive) | 34.8 µM (inactive) | 5.83 µM (inactive) | 5.22 µM (inactive) | 8.2 µM (inactive) | 14.9 µM (inactive) | 5.33 µM (inactive) | 12.3 µM (inactive) | 21.2 µM (inactive) | 5.28 µM (inactive) | 39.4 µM (inactive) | 20.4 µM (inactive) | 19.1 µM (inactive) | 6.55 µM (inactive) | 12.3 µM (inactive) | 15.2 µM (inactive) | 40.4 µM (inactive)
5 | CN1CCCC(OC(=O)c2cc3cc(CCl)ccc3oc2=O)C1 (centres undefined) | 20.4 µM (inactive) | 21.6 µM (inactive) | 25.8 µM (inactive) | 31.2 µM (inactive) | 23.9 µM (inactive) | 21.9 µM (inactive) | 27.9 µM (inactive) | 14.8 µM (inactive) | 18.3 µM (inactive) | 29.6 µM (inactive) | 27 µM (inactive) | 27.7 µM (inactive) | 19.5 µM (inactive) | 18.9 µM (inactive) | 29.9 µM (inactive) | 20.3 µM (inactive) | 27.9 µM (inactive) | 23.7 µM (inactive) | 17.6 µM (inactive) | 15.7 µM (inactive)
6 | CC[C@@]1(O)C(=O)OCc2c1cc1n(c2=O)Cc2c-1nc1ccccc1c2/C=N\NC(=O)C(N)CS (some centres undefined) | 0.206 µM (active) | 17.3 µM (inactive) | 0.295 µM (active) | 47 µM (inactive) | 1.66 µM (inactive) | > 100 µM (inactive) | 1.5 µM (inactive) | 0.665 µM (active) | 9.46 µM (inactive) | 0.0794 µM (active) | 0.249 µM (active) | 0.571 µM (active) | 9.29 µM (inactive) | > 84.9 µM (inactive) | 0.435 µM (active) | 53.2 µM (inactive) | 1.71 µM (inactive) | 1.8 µM (inactive) | 9.59 µM (inactive) | 3.13 µM (inactive)
7 | c1ccc(C2=Nn3c(CCCCCCCCc4nnc5n4N=C(c4ccccc4)CS5)nnc3SC2)cc1 | > 100 µM (inactive) | > 75.9 µM (inactive) | 17.4 µM (inactive) | 76.2 µM (inactive) | 72.1 µM (inactive) | 21.1 µM (inactive) | 33.3 µM (inactive) | 37.6 µM (inactive) | > 100 µM (inactive) | 32.4 µM (inactive) | 3.45 µM (inactive) | 18.4 µM (inactive) | 19.6 µM (inactive) | 29.2 µM (inactive) | > 100 µM (inactive) | > 100 µM (inactive) | > 79.8 µM (inactive) | 20.5 µM (inactive) | 28.2 µM (inactive) | 34.2 µM (inactive)
8 | CC(=O)N(O)[C@@H]1CC[C@H](n2cnc3c(N)ncnc32)C1 | > 100 µM (inactive) | > 100 µM (inactive) | > 100 µM (inactive) | > 100 µM (inactive) | > 100 µM (inactive) | > 100 µM (inactive) | > 100 µM (inactive) | > 100 µM (inactive) | > 100 µM (inactive) | > 100 µM (inactive) | > 100 µM (inactive) | > 100 µM (inactive) | – | > 100 µM (inactive) | > 100 µM (inactive) | > 100 µM (inactive) | > 100 µM (inactive) | > 100 µM (inactive) | > 100 µM (inactive) | > 100 µM (inactive)
9 | N=c1ccn2c(n1)OC1C(OP(=O)(O)O)C(CO)OC12 (centres undefined) | 1.18 µM (inactive) | > 100 µM (inactive) | 1.21 µM (inactive) | > 100 µM (inactive) | > 100 µM (inactive) | > 100 µM (inactive) | > 80 µM (inactive) | 1.02 µM (active) | 11 µM (inactive) | 0.147 µM (active) | 41.1 µM (inactive) | 25 µM (inactive) | 10.5 µM (inactive) | > 100 µM (inactive) | 7.31 µM (inactive) | > 100 µM (inactive) | 22.5 µM (inactive) | > 100 µM (inactive) | > 100 µM (inactive) | > 100 µM (inactive)
10 | CC(=O)NC(CCCCN(Cc1ccccc1)C(=O)N(CCCl)N=O)C(=O)NCc1ccccc1 (centres undefined) | 16.3 µM (inactive) | > 67.6 µM (inactive) | 17 µM (inactive) | 61.9 µM (inactive) | 43.1 µM (inactive) | 22.2 µM (inactive) | 36.6 µM (inactive) | 41.7 µM (inactive) | > 100 µM (inactive) | 14.3 µM (inactive) | 3.38 µM (inactive) | 16.7 µM (inactive) | 42 µM (inactive) | 44.8 µM (inactive) | 25.7 µM (inactive) | 68.1 µM (inactive) | 14.5 µM (inactive) | 14.7 µM (inactive) | 37.5 µM (inactive) | 33 µM (inactive)
